Experiments:
IRE1α [1] = target: T1, IRE1α (Homo sapiens (Human), UniProt O75460); assay: In vitro FRET assay; type: biochemical; settings: XBP1 RNA probe
Description: In vitro FRET assay was performed to evaluate the ability of select compounds to inhibit IRE1, the results of which are summarized in Table 3. To perform the in vitro FRET assay, 1× complete assay buffer (CAB; […], 50 mM sodium citrate pH 7.15, 1 mM magnesium acetate, 0.02% tween 20) was used to dilute SignalChem IRE1α protein to a final concentration of 2 nM. Selected compounds were serially diluted with DMSO in a non-binding black 384-well plate for a total of 15 ul in each well. 2 ul of the serially diluted compound or DMSO control were then added to new wells containing 98 ul of 1×CAB, for a total volume of 100 ul, 10 ul of which were then transferred to wells of a new plate. 5 ul of the diluted IRE1α was then added to each well. 5 ul of a […] XBP1 RNA probe was then added to each well. Fluorescence was then read over 30 minutes in kinetic mode (485/515 nm).
Two RNA probes were used, XBP1 wildtype (SEQ ID NO: 2) which is able to be spliced by active IRE1α or XBP1 mutant (SEQ ID NO: 3) which is unable to be spliced. Each probe contained a 5′ 6-FAM modification and a 3′ IOWA Black FQ modification.
A second FRET assay was performed to assess ATP-mediated inhibition. In this case, compounds and IRE1α were prepared and combined as discussed above, with the addition of ATP up to 1 mM final concentration. This mixture was incubated at room temperature for 60 minutes and then 5 ul of 400 nM XBP1 wildtype or mutant RNA probe was added. Plates were then read over 30 minutes in kinetic mode (485/515 nm) and rate of fluorescence increase calculated for different compound dilutions to determine IC50 (Table 3).

293T cells = assay: Growth assay (cytotoxicity); type: cell-based; settings: Homo sapiens, HEK-293T, 48 h, 2 day incubation, read-out: percentage growth at 5 uM
Description: A growth assay is performed to evaluate the compounds disclosed in Table 1 for cytotoxicity. Briefly, 5,000,000 293T cells are resuspended in 18 mL of cDMEM for a final concentration of 277,777 cells/mL. 180 μL (50,000 cells) cDMEM was seeded per well in 96 well flat bottom plate, with some wells left unfilled. In a 96 well plate, […] cDMEM and 1 uL of any one of the compounds disclosed herein. 133.3 uL cDMEM is added to wells 1, 2, 3, 5, 6, 7, 9, 10, and 11 of row A. Wells are serially diluted with 66.7 uL (highest concentration on right, lowest on left) to the total concentrations shown below. 20 uL of each dilution is transferred in duplicate to the cells plated in the 96-well plate. The plate is then placed in a humidified chamber for a 2 day incubation, and then photographed (media is more yellow in wells with potent cell growth). Absorbance is then measured at […] (lower for more acidic media) and […] (higher for more acidic media).

IRE1α [2] = target: T1, IRE1α; assay: In vitro luciferase assay (IRE1α Endoribonuclease Nanoluciferase Assay); type: cell-based; settings: 293T cells, XBP1 luciferase reporter
Description: Compounds disclosed herein were assessed for disruption of IRE-1 signaling using a IRE1α Endoribonuclease Nanoluciferase Assay. Briefly, 2.5×10^6 293T cells were seeded in a 10 cm^2 tissue culture plate. About 24 hours later, the cells were transfected with Effectene. In a 15 mL Tube, the following was added: 2 μg XBP1 luciferase reporter plasmid (PGK-Luc2-P2A-XBP1u-Nanoluciferase-PEST); 300 μl EC buffer; and 16 μl Enhancer, followed by incubation at room temp for 5 minutes. Next, 60 μl Effectene (Qiagen 301427) was added, followed by incubation at room temperature for 10 minutes. 2.6 mL cDMEM media was added. Old media was aspirated from the cells, followed by addition of 7 mL fresh media. Full transfection mixture was added dropwise to cells. Cells were incubated for 6 hours, followed by trypsinization, centrifugation and resuspension in 11 mL media. 100 uL of cells were plated per a well in a 96 well plate. A day later, ER stressors of choice+/−inhibitors were added. To harvest, media was aspirated from cells completely, then 50 uL 1× passive lysis buffer (Promega: E1941) was added per well and put on shaker (300 rpm) for 30 minutes at room temperature. Cells were centrifuged, and 15 uL sample per well was added to a new, opaque white 384 well plate (Corning 3570). 15 uL OneGlo (nanoluciferase kit, Promega N1630) was added. Plates were spun down, placed on shaker (300 rpm) for 10 minutes. Plates were read on luminometer, 1000 ms integration time per well. 15 uL Stop and Glo (nanoluciferase kit) was added. Plates were spun down, placed on shaker (300 rpm) for 10 minutes. Plates were read on luminometer, 1000 ms second integration time per well. Recordings are provided below in Table 4

T1 sequence (O75460 19-977): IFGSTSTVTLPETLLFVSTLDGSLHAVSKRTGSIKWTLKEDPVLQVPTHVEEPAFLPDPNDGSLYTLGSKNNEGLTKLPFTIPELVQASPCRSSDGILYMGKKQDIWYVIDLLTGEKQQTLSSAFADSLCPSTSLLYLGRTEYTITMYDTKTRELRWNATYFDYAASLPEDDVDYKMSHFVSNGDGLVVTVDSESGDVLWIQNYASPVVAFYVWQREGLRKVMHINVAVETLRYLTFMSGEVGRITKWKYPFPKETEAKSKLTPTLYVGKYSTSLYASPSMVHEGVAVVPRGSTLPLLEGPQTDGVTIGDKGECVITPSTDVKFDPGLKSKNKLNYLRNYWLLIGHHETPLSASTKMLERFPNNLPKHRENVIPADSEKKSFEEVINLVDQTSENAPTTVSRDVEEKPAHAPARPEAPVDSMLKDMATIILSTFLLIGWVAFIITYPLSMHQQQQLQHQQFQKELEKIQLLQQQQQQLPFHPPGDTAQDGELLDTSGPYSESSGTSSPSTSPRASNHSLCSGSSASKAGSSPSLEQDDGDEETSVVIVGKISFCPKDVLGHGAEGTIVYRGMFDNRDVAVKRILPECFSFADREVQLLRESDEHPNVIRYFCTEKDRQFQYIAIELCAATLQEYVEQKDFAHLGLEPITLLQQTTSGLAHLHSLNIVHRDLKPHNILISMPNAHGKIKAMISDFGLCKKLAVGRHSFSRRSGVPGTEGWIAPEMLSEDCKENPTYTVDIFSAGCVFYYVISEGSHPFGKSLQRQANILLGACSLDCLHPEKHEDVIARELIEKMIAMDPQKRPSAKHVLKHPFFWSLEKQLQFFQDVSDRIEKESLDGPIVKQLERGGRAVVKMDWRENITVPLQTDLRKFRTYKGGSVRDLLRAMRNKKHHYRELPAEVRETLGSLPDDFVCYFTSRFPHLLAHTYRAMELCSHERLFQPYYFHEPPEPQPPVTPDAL

SMILES | IC50 (IRE1α [1]) [nM] | EC50 (IRE1α [2]) [nM] | viability at 5 µM (293T cells) [%]
NC1CCC(Nc2ncc(CCc3ccc(NS(=O)(=O)c4ccccc4Cl)cc3)cn2)CC1 (centres unmarked) [Compound 1, N-(4-(2-(2-(((1r,4r)-4-aminocyclohexyl)amino)pyrimidin-5-yl)ethyl)phenyl)-2-chlorobenzenesulfonamide] | 1 to 5 | 50 to 100 | > 75
NC1CCC(Nc2ncc(CCc3ccc(NS(=O)(=O)c4ccccc4Cl)c(F)c3)cn2)CC1 (centres unmarked) [Compound 8, N-(4-(2-(2-(((1r,4r)-4-aminocyclohexyl)amino)pyrimidin-5-yl)ethyl)-2-fluorophenyl)-2-chlorobenzenesulfonamide] | ≤ 1 | 100 to 10000 | > 75
COc1nc(NS(=O)(=O)c2ccccc2Cl)ccc1CCc1cnc(NC2CCC(N)CC2)nc1 (centres unmarked) [Compound 10, N-(5-(2-(2-(((1r,4r)-4-aminocyclohexyl)amino)pyrimidin-5-yl)ethyl)-6-methoxypyridin-2-yl)-2-chlorobenzenesulfonamide] | ≤ 1 |  | > 75
COc1nc(NS(=O)(=O)c2ccccc2Cl)ccc1CCc1cnc(NC2CCC(N(C)C)CC2)nc1 (centres unmarked) [Compound 19, 2-chloro-N-(5-(2-(2-(((1r,4r)-4-(dimethylamino)cyclohexyl)amino)pyrimidin-5-yl)ethyl)-6-methoxypyridin-2-yl)benzenesulfonamide] | ≤ 1 | 5 to 50 | > 75
Cc1nc(NS(=O)(=O)c2ccccc2Cl)c(F)cc1CCc1cnc(NC2CCC(N(C)C)CC2)nc1 (centres unmarked) [Compound 24, 2-chloro-N-(5-(2-(2-(((1r,4r)-4-(dimethylamino)cyclohexyl)amino)pyrimidin-5-yl)ethyl)-3-fluoro-6-methylpyridin-2-yl)benzenesulfonamide] | 1 to 5 |  | > 75
CN(C)C1CCC(Nc2ncc(/C=C/c3cnc(NS(=O)(=O)c4ccccc4Cl)cn3)cn2)CC1 (centres unmarked) [Compound 37, 2-chloro-N-(5-((E)-2-(2-(((1r,4r)-4-(dimethylamino)cyclohexyl)amino)pyrimidin-5-yl)vinyl)pyrazin-2-yl)benzenesulfonamide] | ≤ 1 | 5 to 50 | 
CCc1nc(NS(=O)(=O)c2cnccc2Cl)ccc1/C=C/c1cnc(NC2CCC(N(C)C)CC2)nc1 (centres unmarked) [Compound 42, 4-chloro-N-(5-((E)-2-(2-(((1r,4r)-4-(dimethylamino)cyclohexyl)amino)pyrimidin-5-yl)vinyl)-6-ethylpyridin-2-yl)pyridine-3-sulfonamide] | ≤ 1 | 5 to 50 | 
Cc1nc(NS(=O)(=O)c2ccccc2Cl)ccc1/C=C/c1cnc(NC23CCC(N)(CC2)CC3)nc1 [Compound 49, (E)-N-(5-(2-(2-((4-aminobicyclo[2.2.2]octan-1-yl)amino)pyrimidin-5-yl)vinyl)-6-methylpyridin-2-yl)-2-chlorobenzenesulfonamide] | ≤ 1 | 100 to 10000 | 
COc1nc(NS(=O)(=O)c2ccccc2Cl)c(F)cc1/C=C/c1cnc(NC2CCC(N(C)C)CC2)nc1 (centres unmarked) [Compound 50, 2-chloro-N-(5-((E)-2-(2-(((1r,4r)-4-(dimethylamino)cyclohexyl)amino)pyrimidin-5-yl)vinyl)-3-fluoro-6-methoxypyridin-2-yl)benzenesulfonamide] | ≤ 1 | 5 to 50 | 
COc1nc(NS(=O)(=O)c2cccc(Cl)c2Cl)ccc1/C=C/c1cnc(NC2CCC(N(C)C)CC2)nc1 (centres unmarked) [Compound 51, 2,3-dichloro-N-(5-((E)-2-(2-(((1r,4r)-4-(dimethylamino)cyclohexyl)amino)pyrimidin-5-yl)vinyl)-6-methoxypyridin-2-yl)benzenesulfonamide] | ≤ 1 | ≤ 5 | 

Now from value to molecule, other results behind:

IC50 (IRE1α [1]) [nM] | EC50 (IRE1α [2]) [nM] | SMILES | viability at 5 µM (293T cells) [%]
 | 50 to 100 | NC1CCC(Nc2ncc(/C=C/c3ccc(NS(=O)(=O)c4ccccc4Cl)nn3)cn2)CC1 (centres unmarked) [Compound 2, N-(6-((E)-2-(2-(((1r,4r)-4-aminocyclohexyl)amino)pyrimidin-5-yl)vinyl)pyridazin-3-yl)-2-chlorobenzenesulfonamide] | > 75
≤ 1 | ≤ 5 | COc1cc(NS(=O)(=O)c2ccccc2Cl)ccc1/C=C/c1cnc(NC2CCC(N)CC2)nc1 (centres unmarked) [Compound 14, N-(4-((E)-2-(2-(((1r,4r)-4-aminocyclohexyl)amino)pyrimidin-5-yl)vinyl)-3-methoxyphenyl)-2-chlorobenzenesulfonamide] | > 35
≤ 1 | 5 to 50 | Cc1nc(NS(=O)(=O)c2ccccc2Cl)c(F)cc1/C=C/c1cnc(NC2CCC(N(C)C)CC2)nc1 (centres unmarked) [Compound 25, 2-chloro-N-(5-((E)-2-(2-(((1r,4r)-4-(dimethylamino)cyclohexyl)amino)pyrimidin-5-yl)vinyl)-3-fluoro-6-methylpyridin-2-yl)benzenesulfonamide] | > 75
≤ 1 | ≤ 5 | Cc1cc(NS(=O)(=O)c2ccccc2Cl)ccc1/C=C/c1cnc(NC2CCC(N(C)C)CC2)nc1 (centres unmarked) [Compound 26, 2-chloro-N-(4-((E)-2-(2-(((1r,4r)-4-(dimethylamino)cyclohexyl)amino)pyrimidin-5-yl)vinyl)-3-methylphenyl)benzenesulfonamide] | > 35
≤ 1 | 5 to 50 | Cc1nc(NS(=O)(=O)c2ccc(F)c(F)c2Cl)ccc1/C=C/c1cnc(NC2CCC(N(C)C)CC2)nc1 (centres unmarked) [Compound 38, 2-chloro-N-(5-((E)-2-(2-(((1r,4r)-4-(dimethylamino)cyclohexyl)amino)pyrimidin-5-yl)vinyl)-6-methylpyridin-2-yl)-3,4-difluorobenzenesulfonamide] | 
≤ 1 | 5 to 50 | CNC1CCC(Nc2ncc(C=Cc3ccc(NS(=O)(=O)c4ccccc4Cl)nc3C)cn2)CC1 (centres unmarked) [Compound 44, 2-chloro-N-(6-methyl-5-(2-(2-(((1r,4r)-4-(methylamino)cyclohexyl)amino)pyrimidin-5-yl)vinyl)pyridin-2-yl)benzenesulfonamide] | 
≤ 1 | 5 to 50 | Cc1nc(NS(=O)(=O)c2ccccc2Cl)ccc1/C=C/c1cnc(NC2CCC(N)CC2)nc1 (centres unmarked) [Compound 46, N-(5-((E)-2-(2-(((1r,4r)-4-aminocyclohexyl)amino)pyrimidin-5-yl)vinyl)-6-methylpyridin-2-yl)-2-chlorobenzenesulfonamide] | 
≤ 1 | ≤ 5 | CNC1CCC(Nc2ncc(/C=C/c3ccc(NS(=O)(=O)c4ccccc4Cl)nc3OC)cn2)CC1 (centres unmarked) [Compound 48, 2-chloro-N-(6-methoxy-5-((E)-2-(2-(((1r,4r)-4-(methylamino)cyclohexyl)amino)pyrimidin-5-yl)vinyl)pyridin-2-yl)benzenesulfonamide] | 
≤ 1 | ≤ 5 | COc1cc(NS(=O)(=O)c2ccccc2Cl)ccc1/C=C/c1cnc(NC2CCC(N(C)C)CC2)nc1 (centres unmarked) [Compound 55, 2-chloro-N-(4-((E)-2-(2-(((1r,4r)-4-(dimethylamino)cyclohexyl)amino)pyrimidin-5-yl)vinyl)-3-methoxyphenyl)benzenesulfonamide] | 
